Reference: patent publication US10821106B2, “Composition and methods of use of novel phenylalanine small organic compounds to directly modulate PCSK9 protein activity” (SRX Cardio, LLC, priority 2015, dated 2020)

Experiments:
[1] = biological target: T1, recombinant PCSK9 (Homo sapiens, UniProt Q8NBP7); assay: DiI-LDL Uptake Assay in HepG2 cells; format: cell-based; details: 2.5 ug/mL PCSK9, DiI-LDL 5 ug/ml, read-out: Uptake Assay: % Inhibition of 2.5 ug/mL recombinant PCSK9 @ X compound dose; for inhibition at 1.25 µM: 1.25 uM compound
Procedure: The cells were incubated in a 96-well plate for a total of 16 h in the absence or presence of recombinant PCSK9 (final concentration 2.5 ug/ml) protein alone or recombinant PCSK9 protein pre-mixed with indicated concentration of experimental compounds (Cmpd #). After 16 h, DiI-LDL (final concentration 5 ug/ml) was added to the incubation mixtures. After 4 h, cells are stained with Hoechst 33342 for 30 minutes, then rinsed with phosphate buffered saline, and then a final volume of 100 ul phosphate buffered saline was added to each well. The fluorescence was measured (DiI: excitation at 550 nm and emission at 590 nm; Hoechst: excitation at 355 nm, emission at 460 nm). The percent recombinant PCSK9 inhibition was calculated as [‘Compound Dose DiI Fluorescence’-‘2.5 ug/ml PCSK9-treated DiI Fluorescence’]/[‘No PCSK9 DiI Fluorescence’-‘2.5 ug/ml PCSK9-treated DiI Fluorescence’]×100%.
Cellular DiI-LDL uptake can be measured using protocols adapted from Benjannet et al., “Effects of the prosegment and pH on the activity of PCSK9: evidence for additional processing events” J Biol Chem. 285(52): 40965-40978 (2010) and “Composition and Methods of Use of Small Molecules as Binding Ligands for the Modulation of Proprotein Convertase Subtilisin/Kexin Type 9 (PCSK9) Protein Activity” (WO2016029037), which are incorporated by reference in their entirety.
Cells, such as HepG2, HuH7, FL83B, or a cell line transfected with a short-hairpin PCSK9 knockdown sequence such as HepG2/shPCSK9, HuH7/shPCSK9, or FL83B/shPCSK9 are plated and cultured at 37° C. for 12-24 h. Culture media is removed and replaced with fresh lipoprotein-depleted culture media supplemented with 5 ug/mL of DiI-LDL (Kalen Biomedical) or lipoprotein-depleted culture media supplemented with 5 ug/mL of DiI-LDL plus a predetermined concentration of recombinant PCSK9, for example a 10 nM final concentration of PCSK9. Lipoprotein-depleted culture media can be composed of DMEM (Invitrogen) with 10% lipoprotein-depleted fetal bovine serum (Kalen Biomedical) and supplemented with penicillin-streptomycin (Life Technologies). Cells are dosed with small molecule test compounds at doses ranging from 0 nM to 100 uM.
Following an incubation period of specified length, such as 6 hours, Hoechst 33342 (AnaSpec) stain is added to the cell media per manufacturer's instructions and incubated for a specified length (e.g., 30 minutes). The lipoprotein-depleted media is removed and cells rinsed three times with phosphate buffered saline. A final volume of phosphate buffered saline is added back to the wells. The DiI fluorescence is measured with a plate reader using an exciting wavelength of 550 nm and the resulting emission at 590 nm is measured. The Hoechst stain fluorescence is measured with a plate reader using an exciting wavelength of 355 nm and the resulting emission at 460 nm is measured.
Cells are analyzed by for both Hoechst stain (DNA content) and DiI-LDL fluorescence. Cells incubated with small molecule compounds that are inhibitors of PCSK9 will be expected to show increased amounts of DiI-LDL fluorescence, relative to control (no compound) specimens, and cells incubated with small molecule compounds that are activators of PCSK9 will be expected to show decreased amounts of DiI-LDL fluorescence relative to control (no compound) specimens.

[2] = biological target: T1, recombinant PCSK9; assay: LDLR Flow / FACS Assay in HuH7 cells; format: cell-based; details: 5.0 ug/mL PCSK9, 6 h, read-out: LDLR Flow Assay: % Inhibition of 5.0 ug/mL recombinant PCSK9 @ X compound dose; for inhibition at 1.25 µM: Huh-7, 1.25 uM compound
Procedure: The cells were incubated in 24-well plates for a total of 6 h in the absence or presence of recombinant PCSK9 protein (final concentration of 5.0 ug/ml), or in the presence of PCSK9 protein mixed with indicated concentration of experimental compound (Cmpd #). After 6 hours, the cells were released from the plate, stained with anti-LDLR antibody, then rinsed, counterstained with DAPI, and then measured by fluorescence activated cell sorting (FACS). The percent recombinant PCSK9 inhibition was calculated as [‘Compound Dose LDLR Fluorescence’-‘5.0 ug/ml PCSK9-treated LDLR Fluorescence’]/[‘No PCSK9 Basal LDLR Fluorescence’-‘5.0 ug/ml PCSK9-treated LDLR Fluorescence’]×100%.
LDLR levels can be measured using flow cytometry or fluorescence activated cell sorting (FACS) using protocols adapted from Benjannet et al., “Effects of the prosegment and pH on the activity of PCSK9: evidence for additional processing events” J Biol Chem. 285(52): 40965-40978 (2010) and “Composition and Methods of Use of Small Molecules as Binding Ligands for the Modulation of Proprotein Convertase Subtilisin/Kexin Type 9 (PCSK9) Protein Activity” (WO2016029037), which are incorporated by reference in their entirety.
Cells, such as HepG2, HuH7, FL83B, or a cell line transfected with a short-hairpin PCSK9 knockdown sequence such as HepG2/shPCSK9, HuH7/shPCSK9, or FL83B/shPCSK9 are plated and cultured at 37° C. for 12-24 h. Culture media is removed and replaced with fresh culture media or culture media plus a predetermined amount of recombinant PCSK9, for example a 10 nM final concentration of PCSK9. Cell culture media can be composed of DMEM (Invitrogen) with 10% fetal bovine serum (Life Technologies) supplemented with penicillin-streptomycin (Life Technologies). Cells are dosed with small molecule test compounds at doses ranging from 0 nM to 100 uM […]
Cells are analyzed for both cell viability marker (dead cells) and LDLR in live cells using a flow cytometer per the manufacturer's operating manual. […]

T1 sequence (Q8NBP7 153-692): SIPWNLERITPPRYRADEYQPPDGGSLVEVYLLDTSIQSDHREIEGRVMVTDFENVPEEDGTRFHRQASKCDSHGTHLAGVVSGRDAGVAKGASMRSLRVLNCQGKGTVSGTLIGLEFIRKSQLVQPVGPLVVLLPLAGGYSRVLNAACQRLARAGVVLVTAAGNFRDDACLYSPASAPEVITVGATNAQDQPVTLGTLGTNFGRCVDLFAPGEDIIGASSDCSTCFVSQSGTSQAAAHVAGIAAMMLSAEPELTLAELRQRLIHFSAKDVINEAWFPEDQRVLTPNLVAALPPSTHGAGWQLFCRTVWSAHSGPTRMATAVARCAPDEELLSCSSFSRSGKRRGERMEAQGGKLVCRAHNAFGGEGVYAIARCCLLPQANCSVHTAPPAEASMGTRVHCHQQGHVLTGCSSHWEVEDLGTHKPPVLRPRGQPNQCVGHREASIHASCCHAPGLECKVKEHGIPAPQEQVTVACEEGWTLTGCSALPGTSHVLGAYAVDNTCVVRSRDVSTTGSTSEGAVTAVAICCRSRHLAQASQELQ

inhibition at 1.25 µM [1] [%]	inhibition at 10 µM ([1]; 10 uM compound) [%]	inhibition at 1.25 µM [2] [%]	inhibition at 10 µM ([2]; Huh-7, 10 uM compound) [%]	Structure (SMILES)
~15	> 100	~15	~55	CC(C)NC(=O)[C@@H](N)Cc1ccc(-c2ccccc2)cc1 [Compound 1, (S)-3-([1,1′-biphenyl]-4-yl)-2-amino-N-isopropylpropanamide]
~40				CC(C)NC(=O)[C@@H](N)Cc1ccc(-c2cc[nH]c(=O)c2)cc1 [Compound 2, (S)-2-amino-N-isopropyl-3-(4-(2-oxo-1,2-dihydropyridin-4-yl)phenyl)propanamide]
~44				CC(C)NC(=O)[C@@H](N)Cc1ccc(-c2cccc(O)c2)cc1 [Compound 3, (S)-2-amino-3-(3′-hydroxy-[1,1′-biphenyl]-4-yl)-N-isopropylpropanamide]
~28		~10		Cc1cc(C[C@H](N)C(=O)NC(C)C)ccc1-c1cccc(O)c1 [Compound 4, (S)-2-amino-3-(3′-hydroxy-2-methyl-[1,1′-biphenyl]-4-yl)-N-isopropylpropanamide]
